# Data taken from US20090239841A1, “Diaryl Ureas as CB1 Antagonists” (priority 2004, published 2009).
# Target: T1, hCB1 (Homo sapiens, UniProt P21554)
# T1 construct: made in house; host or cells: Sf9 insect cells (baculovirus), P2 membranes
# Test: Agonist-induced GTP binding (GTPγ35S) assay at CB1, Example 8
# Type: biochemical
# Settings: Table II; IC50 at CB1, GTP binding with 1 nM CP55,940; read-out: IC50
# Outline: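 Membranes from Sf9 cells co-expressing hCB1 and heterotrimeric G-protein (10 μg protein) in Tris pH 7.4 buffer with 5 μM GDP. Test compounds (10^−10–10^−5 M) competed against 1 nM CP55,940 with […] GTPγ35S, 60 min at room temperature. Filter-bound radioactivity by scintillation, expressed as percent above basal.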
# T1 sequence (P21554 whole entry): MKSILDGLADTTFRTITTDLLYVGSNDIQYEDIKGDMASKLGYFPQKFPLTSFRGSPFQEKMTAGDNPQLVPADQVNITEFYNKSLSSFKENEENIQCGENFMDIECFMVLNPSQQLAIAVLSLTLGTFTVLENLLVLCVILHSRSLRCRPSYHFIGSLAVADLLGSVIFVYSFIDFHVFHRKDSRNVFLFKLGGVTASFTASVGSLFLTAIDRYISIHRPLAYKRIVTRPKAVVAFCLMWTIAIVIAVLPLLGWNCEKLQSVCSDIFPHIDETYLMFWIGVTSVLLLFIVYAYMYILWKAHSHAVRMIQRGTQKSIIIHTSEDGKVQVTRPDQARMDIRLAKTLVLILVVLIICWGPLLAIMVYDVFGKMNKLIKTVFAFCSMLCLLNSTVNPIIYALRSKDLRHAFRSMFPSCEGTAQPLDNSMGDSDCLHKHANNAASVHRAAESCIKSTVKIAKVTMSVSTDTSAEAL
row,Structure (SMILES),IC50
1,"CC(C)c1ccc(NC(=O)Nc2ccc(C#N)cc2)cc1 [Compound 193, N-(4-cyanophenyl)-N′-(4-isopropylphenyl)urea]",< 2000 nM
2,"CC(C)c1ccc(NC(=O)Nc2cccc(C#N)c2)cc1 [Compound 194, N-(3-cyanophenyl)-N′-(4-isopropylphenyl)urea]",< 2000 nM
3,"CC(=O)c1cccc(NC(=O)Nc2ccc(C(C)C)cc2)c1 [Compound 195, N-(3-acetylphenyl)-N′-(4-isopropylphenyl)urea]",< 2000 nM
4,"CC(=O)c1ccc(NC(=O)Nc2ccc(C(C)C)cc2)cc1 [Compound 196, N-(4-acetylphenyl)-N′-(4-isopropylphenyl)urea]",< 2000 nM
5,"CCCc1ccc(NC(=O)Nc2ccc(C#N)cc2)cc1 [Compound 197, N-(4-cyanophenyl)-N′-(4-propylphenyl)urea]",< 2000 nM
6,"CCCc1ccc(NC(=O)Nc2cccc(C#N)c2)cc1 [Compound 198, N-(3-cyanophenyl)-N′-(4-propylphenyl)urea]",< 2000 nM
7,"CCCc1ccc(NC(=O)Nc2cccc(C(C)=O)c2)cc1 [Compound 199, N-(3-acetylphenyl)-N′-(4-propylphenyl)urea]",< 2000 nM
8,"CCCc1ccc(NC(=O)Nc2ccc(C(C)=O)cc2)cc1 [Compound 200, N-(4-acetylphenyl)-N′-(4-propylphenyl)urea]",< 2000 nM
9,"CC(=O)c1ccc(NC(=O)Nc2cccc(Br)c2)cc1 [Compound 201, N-(4-acetylpheny-)-N′-(3-bromophenyl)urea]",< 2000 nM
10,"CCOc1cccc(NC(=O)Nc2ccc(C)cc2)c1 [Compound 202, N-(3-ethoxyphenyl)-N′-(4-methylphenyl)urea]",< 2000 nM
11,"CCOc1cccc(NC(=O)Nc2cccc(F)c2)c1 [Compound 203, N-(3-ethoxyphenyl)-N′-(3-fluorophenyl)urea]",< 2000 nM
12,"CCOc1cccc(NC(=O)Nc2ccc(F)cc2)c1 [Compound 204, N-(3-ethoxyphenyl)-N′-(4-fluorophenyl)urea]",< 2000 nM
13,"CCOc1ccc(NC(=O)Nc2cccc(F)c2)cc1 [Compound 205, N-(4-ethoxyphenyl)-N′-(3-fluorophenyl)urea]",< 2000 nM
14,"CCOc1ccc(NC(=O)Nc2ccc(F)cc2)cc1 [Compound 206, N-(4-ethoxyphenyl)-N′-(4-fluorophenyl)urea]",< 2000 nM
15,"COCc1ccc(NC(=O)Nc2ccc(C)cc2)cc1 [Compound 207, N-[4-(methoxymethyl)phenyl]-N′-(4-methylphenyl)urea]",< 2000 nM
16,"COCc1ccc(NC(=O)Nc2cccc(F)c2)cc1 [Compound 208, N-(3-fluorophenyl)-N′-[4-(methoxymethyl)phenyl]urea]",< 2000 nM
17,"CCCOc1ccc(NC(=O)Nc2cccc(F)c2)cc1 [Compound 209, N-(3-fluorophenyl)-N′-(4-propoxyphenyl)urea]",< 2000 nM
18,"CCCOc1ccc(NC(=O)Nc2ccc(F)cc2)cc1 [Compound 210, N-(4-fluorophenyl)-N′-(4-propoxyphenyl)urea]",< 2000 nM
19,"CC(C)Oc1cccc(NC(=O)Nc2cccc(F)c2)c1 [Compound 211, N-(3-fluorophenyl)-N′-(3-isopropoxyphenyl)urea]",< 2000 nM
20,"CC(C)Oc1cccc(NC(=O)Nc2ccc(F)cc2)c1 [Compound 212, N-(4-fluorophenyl)-N′-(3-isopropoxyphenyl)urea]",< 2000 nM

row,Structure (SMILES),IC50
1,"Cc1cccc(NC(=O)Nc2ccc(OC(C)C)cc2)c1 [Compound 213, N-(4-isopropoxyphenyl)-N′-(3-methylphenyl)urea]",< 2000 nM
2,"Cc1ccc(NC(=O)Nc2ccc(OC(C)C)cc2)cc1 [Compound 214, N-(4-isopropoxyphenyl)-N′-(4-methylphenyl)urea]",< 2000 nM
3,"CC(C)Oc1ccc(NC(=O)Nc2cccc(F)c2)cc1 [Compound 215, N-(3-fluorophenyl)-N′-(4-isopropoxyphenyl)urea]",< 2000 nM
4,"CC(C)Oc1ccc(NC(=O)Nc2ccc(F)cc2)cc1 [Compound 216, N-(4-fluorophenyl)-N′-(4-isopropoxyphenyl)urea]",< 2000 nM
5,"Cc1cccc(NC(=O)Nc2cccc(OC(F)F)c2)c1 [Compound 217, N-[3-(difluoromethoxy)phenyl]-N′-(3-methylphenyl)urea]",< 2000 nM
6,"Cc1ccc(NC(=O)Nc2cccc(OC(F)F)c2)cc1 [Compound 218, N-[3-(difluoromethoxy)phenyl]-N′-(4-methylphenyl)urea]",< 2000 nM
7,"O=C(Nc1cccc(F)c1)Nc1cccc(OC(F)F)c1 [Compound 219, N-[3-(difluoromethoxy)phenyl]-N′-(3-fluorophenyl)urea]",< 2000 nM
8,"O=C(Nc1ccc(F)cc1)Nc1cccc(OC(F)F)c1 [Compound 220, N-[3-(difluoromethoxy)phenyl]-N′-(4-fluorophenyl)urea]",< 2000 nM
9,"O=C(Nc1ccc(F)cc1)Nc1ccc(OC(F)F)cc1 [Compound 221, N-[4-(difluoromethoxy)phenyl]-N′-(4-fluorophenyl)urea]",< 2000 nM
10,"CCOc1cccc(NC(=O)Nc2ccccc2)c1 [Compound 222, N-(3-ethoxyphenyl)-N′-phenylurea]",< 2000 nM
11,"CCOc1ccc(NC(=O)Nc2ccccc2)cc1 [Compound 223, N-(4-ethoxyphenyl)-N′-phenylurea]",< 2000 nM
12,"CC(C)Oc1ccc(NC(=O)Nc2ccccc2)cc1 [Compound 224, N-(4-isopropoxyphenyl)-N′-phenylurea]",< 2000 nM
13,"O=C(Nc1ccccc1)Nc1cccc(OC(F)F)c1 [Compound 225, N-[3-(difluoromethoxy)phenyl]-N′-phenylurea]",< 2000 nM
14,Cc1ccccc1NC(=O)Nc1cccc(OC(F)F)c1 [Compound 226],< 2000 nM
15,"CCc1ccccc1NC(=O)Nc1cccc(OC(F)F)c1 [Compound 227, N-[3-(difluoromethoxy)phenyl]-N′-(2-ethylphenyl)urea]",< 2000 nM
16,"CCc1ccc(NC(=O)Nc2ccc(OC)cc2)cc1 [Compound 228, N-(4-ethylphenyl)-N′-(4-methoxyphenyl)urea]",< 2000 nM
17,"COc1ccc(NC(=O)Nc2ccc(Cl)cc2)cc1 [Compound 229, N-(4-chlorophenyl)-N′-(4-methoxyphenyl)urea]",< 2000 nM
18,"CCOc1cccc(NC(=O)Nc2cccc(CC)c2)c1 [Compound 230, N-(3-ethoxyphenyl)-N′-(3-ethylphenyl)urea]",< 2000 nM
19,"CCOc1cccc(NC(=O)Nc2ccc(CC)cc2)c1 [Compound 231, N-(3-ethoxyphenyl)-N′-(4-ethylphenyl)urea]",< 2000 nM
20,"CCOc1cccc(NC(=O)Nc2cccc(Cl)c2)c1 [Compound 232, N-(3-chlorophenyl)-N′-(3-ethoxyphenyl)urea]",< 2000 nM

row,Structure (SMILES),IC50
1,"CCOc1cccc(NC(=O)Nc2ccc(Cl)cc2)c1 [Compound 233, N-(4-chlorophenyl)-N′-(3-ethoxyphenyl)urea]",< 2000 nM
2,"CCOc1ccc(NC(=O)Nc2cccc(CC)c2)cc1 [Compound 234, N-(4-ethoxyphenyl)-N′-(3-ethylphenyl)urea]",< 2000 nM
3,"CCOc1ccc(NC(=O)Nc2ccc(CC)cc2)cc1 [Compound 235, N-(4-ethoxyphenyl)-N′-(4-ethylphenyl)urea]",< 2000 nM
4,"CCOc1ccc(NC(=O)Nc2cccc(Cl)c2)cc1 [Compound 236, N-(3-chlorophenyl)-N′-(4-ethoxyphenyl)urea]",< 2000 nM
5,"CCOc1ccc(NC(=O)Nc2ccc(Cl)cc2)cc1 [Compound 237, N-(4-chlorophenyl)-N′-(4-ethoxyphenyl)urea]",< 2000 nM
6,"CCc1ccc(NC(=O)Nc2cccc(COC)c2)cc1 [Compound 238, N-(4-ethylphenyl)-N′-[3-(methoxymethyl)phenyl]urea]",< 2000 nM
7,"CCc1cccc(NC(=O)Nc2ccc(COC)cc2)c1 [Compound 239, N-(3-ethylphenyl)-N′-[4-(methoxymethyl)phenyl]urea]",< 2000 nM
8,"CCc1ccc(NC(=O)Nc2ccc(COC)cc2)cc1 [Compound 240, N-(4-ethylphenyl)-N′-[4-(methoxymethyl)phenyl]urea]",< 2000 nM
9,"COCc1ccc(NC(=O)Nc2cccc(Cl)c2)cc1 [Compound 241, N-(3-chlorophenyl)-N′-[4-(methoxymethyl)phenyl]urea]",< 2000 nM
10,"COCc1ccc(NC(=O)Nc2ccc(Cl)cc2)cc1 [Compound 242, N-(4-chlorophenyl)-N′-[4-(methoxymethyl)phenyl]urea]",< 2000 nM
11,"CCCOc1ccc(NC(=O)Nc2cccc(CC)c2)cc1 [Compound 243, N-(3-ethylphenyl)-N′-(4-propoxyphenyl)urea]",< 2000 nM
12,"CCCOc1ccc(NC(=O)Nc2cccc(Cl)c2)cc1 [Compound 244, N-(3-chlorophenyl)-N′-(4-propoxyphenyl)urea]",< 2000 nM
13,"CCCOc1ccc(NC(=O)Nc2ccc(Cl)cc2)cc1 [Compound 245, N-(4-chlorophenyl)-N′-(4-propoxyphenyl)urea]",< 2000 nM
14,"CCc1cccc(NC(=O)Nc2cccc(OC(C)C)c2)c1 [Compound 246, N-(3-ethylphenyl)-N′-(3-isopropoxyphenyl)urea]",< 2000 nM
15,"CC(C)Oc1cccc(NC(=O)Nc2cccc(Cl)c2)c1 [Compound 247, N-(3-chlorophenyl)-N′-(3-isopropoxyphenyl)urea]",< 2000 nM
16,CC(C)Oc1cccc(NC(=O)Nc2ccc(Cl)cc2)c1 [Compound 248],< 2000 nM
17,"CCc1cccc(NC(=O)Nc2ccc(OC(C)C)cc2)c1 [Compound 249, N-(3-ethylphenyl)-N′-(4-isopropoxyphenyl)urea]",< 2000 nM
18,"CCc1ccc(NC(=O)Nc2ccc(OC(C)C)cc2)cc1 [Compound 250, N-(4-ethylphenyl)-N′-(4-isopropoxyphenyl)urea]",< 2000 nM
19,"CC(C)Oc1ccc(NC(=O)Nc2cccc(Cl)c2)cc1 [Compound 251, N-(3-chlorophenyl)-N′-(4-isopropoxyphenyl)urea]",< 2000 nM
20,"CC(C)Oc1ccc(NC(=O)Nc2ccc(Cl)cc2)cc1 [Compound 252, N-(4-chlorophenyl)-N′-(4-isopropoxyphenyl)urea]",< 2000 nM
